Laboratory results taken from US10532085B2, “Methods for increasing intracellular activity of Hsp70” (Orphazyme A/S, priority 2010, dated 2020).

Tests used:
[1] = Liposome 90° light scattering, POPC liposomes; assay type: binding; conditions: pH 7.4
From the text: (§1) Thus, we investigated the interaction of Hsp70 with palmitoyl-oleoyl-phosphatidylcholine (POPC) large unilamellar vesicles (LUVs) containing various membrane-associated anionic lipids, i.e. palmitoyl-oleoyl-phosphatidylserine (POPS; primarily in plasma membrane), cardiolipin (primarily mitochondrial) and BMP (primarily in late endosomes/lysosomes). Taking into account the increasingly acidic milieu of the endo-lysosomal compartment upon maturation to lysosomes, we compared the protein-lipid interactions in neutral (pH 7.4) and acidic (pH 6.0) conditions. […] As reported earlier for POPS, all negatively charged lipids enhanced the binding of rHsp70 to the liposomes at neutral pH approximately 4-fold irrespective of the charge density on the liposome surface (ranging from −1 to −2).
(§2) The tryptophan fluorescence spectra (RFI) and liposome 90° light scattering (RSI) were analyzed in a HEPES buffer (20 mM HEPES, 0.1 mM EDTA, pH 7.4 or 6.0 as indicated) employing LUVs consisting of indicated lipids essentially as described in the art. For the RFI, LUVs were added in 10 μM aliquots and spectra recorded after a 20 min stabilization period. For the RSI, recombinant proteins were added in 0.12 nmol aliquots.

[2] = test system: primary fibroblasts from Mucopolysaccharidosis type IIIA patients; assay: Volume of Acidic Compartment (VAC) by FACS, MPS IIIA fibroblasts; assay type: cell-based, human; conditions: added for 48 h, MPSIIIA GM00879
Method: (§3) FIG. 10: Test of rhHSP70 in non-sphingolipidosis. rhHSP70 was added for 48 h to primary fibroblasts from Sandhoff Disease and Mucopolysaccharidosis type IIIA (aka Sanfilippo type IIIA) patients (Coriell Cell Repository ID: Sandhoff: GM11098, MPSIIIA: GM00879). Ctrl=Normal Control fibroblasts. Read-out: Volume of Acidic Compartment (VAC) (Primary cellular pathology), performed by FACS.

[3] = Liposome 90° light scattering, POPS; assay type: binding; conditions: pH 6.0 vs pH 7.4
From the text: as §1, §2

[4] = biological target: T1, ASM (Mus musculus, UniProt Q04519); assay: ASM activity in WT-MEFs; assay type: cell-based, murine; conditions: 300 nM (cytoprotective concentration)
T1 construct: endogenous in cells; host or cells: immortalized wild-type murine embryonic fibroblasts (WT-MEFs)
T1 sequence (Q04519 45-627): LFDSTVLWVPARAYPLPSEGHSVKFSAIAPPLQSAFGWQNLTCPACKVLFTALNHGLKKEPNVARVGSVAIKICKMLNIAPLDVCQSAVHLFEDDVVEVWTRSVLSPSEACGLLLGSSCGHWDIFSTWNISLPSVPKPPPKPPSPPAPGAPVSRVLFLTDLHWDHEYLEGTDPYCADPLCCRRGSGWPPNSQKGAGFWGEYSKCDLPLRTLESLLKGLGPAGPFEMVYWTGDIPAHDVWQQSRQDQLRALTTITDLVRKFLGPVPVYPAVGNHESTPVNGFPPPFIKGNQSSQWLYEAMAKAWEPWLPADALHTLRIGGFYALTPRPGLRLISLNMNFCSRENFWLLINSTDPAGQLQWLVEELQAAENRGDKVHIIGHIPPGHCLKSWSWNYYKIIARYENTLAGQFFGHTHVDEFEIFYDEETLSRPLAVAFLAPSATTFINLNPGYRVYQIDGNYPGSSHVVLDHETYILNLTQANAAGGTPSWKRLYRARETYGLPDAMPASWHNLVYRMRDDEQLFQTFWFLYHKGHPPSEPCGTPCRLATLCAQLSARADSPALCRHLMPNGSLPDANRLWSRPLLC
From the text: BMP binds ASM with high affinity and stimulates its ability to hydrolyze sphingomyelin to ceramide and phosphorylcholine. […] In order to test whether ASM is responsible for the lysosome stabilizing effect we treated the cells with desipramine, a well characterized pharmacological ASM inhibitor. […] It should be noted that akin to rHsp70, also rASM localized to the lysosomes.
WT- and Hsp70-MEFs were generated, immortalized and maintained as described in the art. Human NPDA fibroblasts (83/24) originate from a skin biopsy of a patient with hepatosplenomegaly. […] The photo-oxidation-induced loss of the lysosomal pH-gradient and leakage of acridine orange to the cytosol from individual lysosomes was quantified visually as “loss of red dots” in U2-O—S cells and as a decrease in red and an increase in green fluorescence by Zeiss LSM DUO Software in fibroblasts. The total and cytoplasmic (digitonin-extracted) cathepsin activities were measured in digitonin-treated samples using zFR-AFC (Enzyme System Products) probe as described in the art. The tryptophan fluorescence spectra and liposome 90° light scattering were analyzed in a HEPES buffer (20 mM HEPES, 0.1 mM EDTA, pH as indicated) essentially as described in the art. […] Apoptosis-like cell death and lysosomal membrane permeabilization were analyzed essentially as described in the art. […]

[5] = test system: primary fibroblasts from Sandhoff Disease patients; assay: Volume of Acidic Compartment (VAC) by FACS, Sandhoff fibroblasts; assay type: cell-based, human; conditions: added for 48 h, Sandhoff GM11098
Method: as §3

For “rHsp70: recombinant (human) heat shock protein 70; in some tests labelled with Alexa Fluor 488”, which “binding (relative change in 90° light scattering)” value [1] is on record?
Its value is “very weak binding”.

And the “Volume of Acidic Compartment (VAC)” value [2]?
Its value is “effectively reverts the lysosomal primary pathology”.

What about the “binding to POPS upon acidification” value [3] of the same substance?
Its value is “only slightly increased”.

What about the ASM activity [4] of the same substance?
The ASM activity was “increased the ASM activity to the level comparable to that in Hsp70-MEFs”.

And the “Volume of Acidic Compartment (VAC)” value [5]?
Its value is “effectively reverts the lysosomal primary pathology”.
